{"source": "paper PMC12504763", "about": "“Antiproliferation, 3D-multicellular spheroid and VEGFR-2 inhibitory properties of spiroindolin-2-ones with phosphonate function” (Scientific Reports, 2025)", "key": {"[1]": {"biological_target": "T1, VEGFR-2 (Homo sapiens, UniProt P35968)", "T1 construct": "endogenous in cells; host or cells: HCT116, PaCa2, MCF7 (human cancer cell lines, ATCC origin)", "T1 sequence (P35968 20-1356)": "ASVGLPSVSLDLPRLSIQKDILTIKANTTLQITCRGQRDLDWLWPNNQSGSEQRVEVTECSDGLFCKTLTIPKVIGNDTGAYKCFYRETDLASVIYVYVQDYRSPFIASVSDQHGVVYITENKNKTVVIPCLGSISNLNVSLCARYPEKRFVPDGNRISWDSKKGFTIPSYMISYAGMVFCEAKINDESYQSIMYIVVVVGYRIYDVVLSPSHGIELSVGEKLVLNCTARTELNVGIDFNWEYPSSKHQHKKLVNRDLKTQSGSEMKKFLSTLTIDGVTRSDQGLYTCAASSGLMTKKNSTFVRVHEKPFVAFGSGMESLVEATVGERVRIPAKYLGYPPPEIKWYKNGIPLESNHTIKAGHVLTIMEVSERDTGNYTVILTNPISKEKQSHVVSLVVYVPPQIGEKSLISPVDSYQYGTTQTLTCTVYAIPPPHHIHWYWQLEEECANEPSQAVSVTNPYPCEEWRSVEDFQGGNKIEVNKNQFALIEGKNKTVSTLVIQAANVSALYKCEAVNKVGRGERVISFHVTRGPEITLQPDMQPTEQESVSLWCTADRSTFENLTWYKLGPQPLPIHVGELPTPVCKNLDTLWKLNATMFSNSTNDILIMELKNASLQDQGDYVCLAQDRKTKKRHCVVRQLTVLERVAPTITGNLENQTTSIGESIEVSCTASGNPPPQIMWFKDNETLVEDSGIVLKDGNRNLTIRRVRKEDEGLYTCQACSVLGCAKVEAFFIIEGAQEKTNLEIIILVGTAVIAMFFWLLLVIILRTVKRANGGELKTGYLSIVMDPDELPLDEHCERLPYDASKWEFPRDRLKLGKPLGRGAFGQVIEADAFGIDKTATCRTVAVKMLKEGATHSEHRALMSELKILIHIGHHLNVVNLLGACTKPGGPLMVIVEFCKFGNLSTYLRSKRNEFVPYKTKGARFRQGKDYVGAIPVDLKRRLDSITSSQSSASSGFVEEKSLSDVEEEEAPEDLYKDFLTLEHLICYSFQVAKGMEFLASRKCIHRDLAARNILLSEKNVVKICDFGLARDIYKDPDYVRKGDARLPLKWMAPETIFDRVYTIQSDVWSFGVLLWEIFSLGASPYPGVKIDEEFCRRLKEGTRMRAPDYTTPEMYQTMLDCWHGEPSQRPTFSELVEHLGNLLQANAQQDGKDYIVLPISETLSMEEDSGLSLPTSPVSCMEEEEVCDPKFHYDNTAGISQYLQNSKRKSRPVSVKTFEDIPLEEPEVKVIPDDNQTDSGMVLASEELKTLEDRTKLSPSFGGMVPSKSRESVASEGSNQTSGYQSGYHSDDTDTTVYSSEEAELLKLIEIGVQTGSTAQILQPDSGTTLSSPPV", "experiment": "cell-based", "format": "cell-based", "conditions": "for inhibition at 10 µM: MCF7; for VEGFR-2 pg/mL ± SEM MCF7: at 10 μM, control 258.70 ± 2.3"}, "[2]": {"biological_target": "T1, VEGFR-2", "experiment": "cell-based", "format": "cell-based", "conditions": "for inhibition at 10 µM: HCT-116, HCT116; for VEGFR-2 pg/mL ± SEM HCT116: at 10 μM, control 317.80 ± 3.5"}, "[3]": {"tested_on": "A549 (lung) cancer cell line", "experiment": "2D-monolayer antiproliferation (MTT) against A549", "format": "cell-based, human", "conditions": "for IC50: Homo sapiens, MTT, 72 h incubation, A549 lung, read-out: IC50, μM ± SEM A549; for SI (selectivity index) A549: IC50 of RPE1 normal cell/IC50 of A549"}, "[4]": {"biological_target": "T2, COX-2 (Homo sapiens, UniProt P35354)", "T2 construct": "purchased BioVision incorporated USA K548–100", "T2 sequence (P35354 18-604)": "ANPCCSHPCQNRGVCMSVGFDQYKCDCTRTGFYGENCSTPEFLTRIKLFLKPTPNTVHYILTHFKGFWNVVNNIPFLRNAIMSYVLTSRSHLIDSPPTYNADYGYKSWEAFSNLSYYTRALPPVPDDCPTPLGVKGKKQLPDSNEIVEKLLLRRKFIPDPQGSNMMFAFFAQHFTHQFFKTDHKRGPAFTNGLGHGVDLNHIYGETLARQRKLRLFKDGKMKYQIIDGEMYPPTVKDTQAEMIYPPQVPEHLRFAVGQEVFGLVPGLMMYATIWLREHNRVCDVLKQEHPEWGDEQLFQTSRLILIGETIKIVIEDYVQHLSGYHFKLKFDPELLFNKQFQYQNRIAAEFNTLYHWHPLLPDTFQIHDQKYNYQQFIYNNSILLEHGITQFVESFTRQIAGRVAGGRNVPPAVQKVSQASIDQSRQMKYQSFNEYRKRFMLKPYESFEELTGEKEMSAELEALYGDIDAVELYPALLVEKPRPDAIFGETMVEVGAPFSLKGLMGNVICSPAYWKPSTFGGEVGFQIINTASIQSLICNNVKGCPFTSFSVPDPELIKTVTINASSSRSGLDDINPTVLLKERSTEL", "experiment": "biochemical", "conditions": "for inhibition at 10 µM: 3 replicates, read-out: % Inhibition of COX-2 ± SEM; for SI (selectivity index, COX-2/COX-1): at 10 μM"}, "[5]": {"biological_target": "T1, VEGFR-2", "experiment": "cell-based", "format": "cell-based", "conditions": "for inhibition at 10 µM: PaCa-2, PaCa2; for VEGFR-2 pg/mL ± SEM PaCa2: at 10 μM, control 326.80 ± 1.9"}, "[6]": {"tested_on": "TNF-α", "experiment": "TNF-α inhibitory properties (ELISA), PaCa2 cell lysate", "format": "cell-based, human", "conditions": "at 10 μM; for TNF-α pg/mL (± SEM) PaCa2: control 111.8 ± 2.0"}, "[7]": {"tested_on": "TNF-α", "experiment": "TNF-α inhibitory properties (ELISA), HCT116 cell lysate", "format": "cell-based, human", "conditions": "at 10 μM; for TNF-α pg/mL (± SEM) HCT116: control 95.74 ± 0.5"}, "[8]": {"tested_on": "TNF-α", "experiment": "TNF-α inhibitory properties (ELISA), MCF7 cell lysate", "format": "cell-based, human", "conditions": "at 10 μM; for TNF-α pg/mL (± SEM) MCF7: control 83.26 ± 1.1"}, "[9]": {"biological_target": "T3, COX-1 (Ovis aries, UniProt P05979)", "T3 construct": "purchased BioVision incorporated USA K548–100", "T3 sequence (P05979 25-600)": "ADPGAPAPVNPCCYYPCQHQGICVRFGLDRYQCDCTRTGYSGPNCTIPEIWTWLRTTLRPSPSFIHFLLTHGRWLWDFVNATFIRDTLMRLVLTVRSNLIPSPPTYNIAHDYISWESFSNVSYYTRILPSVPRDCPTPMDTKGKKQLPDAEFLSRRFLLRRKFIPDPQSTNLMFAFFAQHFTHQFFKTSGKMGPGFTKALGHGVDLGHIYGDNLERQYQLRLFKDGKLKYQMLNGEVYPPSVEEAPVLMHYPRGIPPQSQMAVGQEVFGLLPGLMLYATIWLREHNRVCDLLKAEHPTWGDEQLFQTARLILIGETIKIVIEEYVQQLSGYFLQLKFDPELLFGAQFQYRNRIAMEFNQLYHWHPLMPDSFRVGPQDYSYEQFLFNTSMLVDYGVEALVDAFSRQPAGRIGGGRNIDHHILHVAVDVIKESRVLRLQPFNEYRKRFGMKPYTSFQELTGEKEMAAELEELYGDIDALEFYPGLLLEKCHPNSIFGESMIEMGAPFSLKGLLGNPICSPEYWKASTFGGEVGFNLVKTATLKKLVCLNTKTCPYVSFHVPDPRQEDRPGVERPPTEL", "experiment": "biochemical", "conditions": "3 replicates, read-out: % Inhibition of COX-1 ± SEM"}, "[10]": {"tested_on": "PaCa2 (pancreatic) cancer cell line", "experiment": "2D-monolayer antiproliferation (MTT) against PaCa2", "format": "cell-based, human", "conditions": "for IC50: Homo sapiens, PaCa-2, MTT, 72 h incubation, PaCa2 pancreatic, read-out: IC50, μM ± SEM PaCa2; for SI (selectivity index) PaCa2: IC50 of RPE1 normal cell/IC50 of PaCa2"}, "[11]": {"tested_on": "HCT116 (colon) cancer cell line", "experiment": "2D-monolayer antiproliferation (MTT) against HCT116", "format": "cell-based, human", "conditions": "for IC50: Homo sapiens, HCT-116; for SI (selectivity index) HCT116: IC50 of RPE1 normal cell/IC50 of HCT116"}, "[12]": {"tested_on": "MCF7 (breast) cancer cell line", "experiment": "2D-monolayer antiproliferation (MTT) against MCF7", "format": "cell-based, human", "conditions": "for IC50: Homo sapiens, MTT, 72 h incubation, MCF7 breast, read-out: IC50, μM ± SEM MCF7; for SI (selectivity index) MCF7: IC50 of RPE1 normal cell/IC50 of MCF7"}, "[13]": {"tested_on": "RPE1 (normal human immortalized retinal pigment epithelial cell line)", "experiment": "cells", "format": "cell-based", "conditions": "Homo sapiens, RPE-1; MTT, normal RPE1 cell; read-out: IC50, μM ± SEM RPE1"}, "[14]": {"conditions": "MTT, 72 h incubation, HCT116 colon, read-out: IC50, μM ± SEM HCT116"}, "[15]": {"conditions": "log of observed IC50 (μM), HCT116, read-out: Log(observed property) (converted)"}}, "note": "Like-named read-outs stand apart in the source and are kept apart here.", "data": [{"smiles": "CCOP(=O)(OCC)N1C/C(=C\\c2ccccc2)C(=O)C2(C1)C(c1ccccc1)CN(C)C21C(=O)Nc2ccc(F)cc21", "note": "(centres unmarked) [Compound 17b, Diethyl (E)-(5′′-benzylidene-5-fluoro-1′-methyl-2,4′′-dioxo-4′-phenyldispiro[indoline-3,2′-pyrrolidine-3′,3′′-piperidin]-1′′-yl)phosphonate]", "values": [{"measurement": "inhibition at 10 µM", "setting": "[1]", "result": 70.2, "unit": "%"}, {"measurement": "VEGFR-2 pg/mL ± SEM MCF7", "setting": "[1]", "result": "77.20 ± 0.6", "unit": "pg/mL"}, {"measurement": "inhibition at 10 µM", "setting": "[2]", "result": 77, "unit": "%"}, {"measurement": "VEGFR-2 pg/mL ± SEM HCT116", "setting": "[2]", "result": "73.25 ± 2.0", "unit": "pg/mL"}, {"measurement": "IC50", "setting": "[3]", "result": "11 ± 0.135", "unit": "µM"}, {"measurement": "SI (selectivity index) A549", "setting": "[3]", "result": 2.1}, {"measurement": "inhibition at 10 µM", "setting": "[4]", "result": "61.3 ± 2.6", "unit": "%"}, {"measurement": "SI (selectivity index, COX-2/COX-1)", "setting": "[4]", "result": 1.04}, {"measurement": "inhibition at 10 µM", "setting": "[5]", "result": 88.1, "unit": "%"}, {"measurement": "VEGFR-2 pg/mL ± SEM PaCa2", "setting": "[5]", "result": "38.75 ± 1.4", "unit": "pg/mL"}, {"measurement": "TNF-α % inhibition PaCa2", "setting": "[6]", "result": 5.5, "unit": "%"}, {"measurement": "TNF-α pg/mL (± SEM) PaCa2", "setting": "[6]", "result": "105.7 ± 3.9", "unit": "pg/mL"}, {"measurement": "TNF-α % inhibition HCT116", "setting": "[7]", "result": 1.1, "unit": "%"}, {"measurement": "TNF-α pg/mL (± SEM) HCT116", "setting": "[7]", "result": "94.64 ± 2.2", "unit": "pg/mL"}, {"measurement": "TNF-α pg/mL (± SEM) MCF7", "setting": "[8]", "result": "82.25 ± 2.6", "unit": "pg/mL"}, {"measurement": "inhibition at 10 µM", "setting": "[9]", "result": "53.7 ± 3.7", "unit": "%"}, {"measurement": "IC50", "setting": "[10]", "result": "12.2 ± 0.297", "unit": "µM"}, {"measurement": "SI (selectivity index) PaCa2", "setting": "[10]", "result": 1.9}, {"measurement": "IC50", "setting": "[11]; [14]", "result": "7.41 ± 0.228", "unit": "µM"}, {"measurement": "IC50", "setting": "[11]; [15]", "result": 7.41, "unit": "µM"}, {"measurement": "SI (selectivity index) HCT116", "setting": "[11]", "result": 3.1}, {"measurement": "IC50", "setting": "[12]", "result": "5.83 ± 0.213", "unit": "µM"}, {"measurement": "SI (selectivity index) MCF7", "setting": "[12]", "result": 4.0}, {"measurement": "IC50", "setting": "[13]", "result": "23.1 ± 0.884", "unit": "µM"}]}, {"smiles": "CCOP(=O)(OCC)N1C/C(=C\\c2ccccc2)C(=O)C2(C1)C(c1ccccc1)CN(C)C21C(=O)Nc2ccc(Cl)cc21", "note": "(centres unmarked) [Compound 17c, Diethyl (E)-(5′′-benzylidene-5-chloro-1′-methyl-2,4′′-dioxo-4′-phenyldispiro[indoline-3,2′-pyrrolidine-3′,3′′-piperidin]-1′′-yl)phosphonate]", "values": [{"measurement": "inhibition at 10 µM", "setting": "[1]", "result": 76.7, "unit": "%"}, {"measurement": "VEGFR-2 pg/mL ± SEM MCF7", "setting": "[1]", "result": "60.40 ± 0.5", "unit": "pg/mL"}, {"measurement": "inhibition at 10 µM", "setting": "[2]", "result": 86, "unit": "%"}, {"measurement": "VEGFR-2 pg/mL ± SEM HCT116", "setting": "[2]", "result": "44.50 ± 1.1", "unit": "pg/mL"}, {"measurement": "IC50", "setting": "[3]", "result": "12.5 ± 0.205", "unit": "µM"}, {"measurement": "SI (selectivity index) A549", "setting": "[3]", "result": 1.1}, {"measurement": "inhibition at 10 µM", "setting": "[4]", "result": "53.9 ± 1.7", "unit": "%"}, {"measurement": "SI (selectivity index, COX-2/COX-1)", "setting": "[4]", "result": 1.05}, {"measurement": "inhibition at 10 µM", "setting": "[5]", "result": 91.3, "unit": "%"}, {"measurement": "VEGFR-2 pg/mL ± SEM PaCa2", "setting": "[5]", "result": "28.43 ± 1.0", "unit": "pg/mL"}, {"measurement": "TNF-α % inhibition PaCa2", "setting": "[6]", "result": 69.8, "unit": "%"}, {"measurement": "TNF-α pg/mL (± SEM) PaCa2", "setting": "[6]", "result": "33.8 ± 2.2", "unit": "pg/mL"}, {"measurement": "TNF-α % inhibition HCT116", "setting": "[7]", "result": 66.9, "unit": "%"}, {"measurement": "TNF-α pg/mL (± SEM) HCT116", "setting": "[7]", "result": "31.72 ± 1.2", "unit": "pg/mL"}, {"measurement": "TNF-α % inhibition MCF7", "setting": "[8]", "result": 72.2, "unit": "%"}, {"measurement": "TNF-α pg/mL (± SEM) MCF7", "setting": "[8]", "result": "23.16 ± 0.7", "unit": "pg/mL"}, {"measurement": "inhibition at 10 µM", "setting": "[9]", "result": "58.6 ± 3.5", "unit": "%"}, {"measurement": "1/(observed property)", "setting": "[10]; 1/observed IC50 (μM), PaCa2", "result": 0.1093}, {"measurement": "IC50", "setting": "[10]", "result": "9.15 ± 0.154", "unit": "µM"}, {"measurement": "SI (selectivity index) PaCa2", "setting": "[10]", "result": 1.5}, {"measurement": "IC50", "setting": "[11]; [14]", "result": "6.32 ± 0.132", "unit": "µM"}, {"measurement": "IC50", "setting": "[11]; [15]", "result": 6.32, "unit": "µM"}, {"measurement": "SI (selectivity index) HCT116", "setting": "[11]", "result": 2.2}, {"measurement": "IC50", "setting": "[12]", "result": "5.27 ± 0.172", "unit": "µM"}, {"measurement": "SI (selectivity index) MCF7", "setting": "[12]", "result": 2.6}, {"measurement": "IC50", "setting": "[13]", "result": "13.8 ± 0.423", "unit": "µM"}]}]}
